Measured values taken from publication PMC5007466, “VCP recruitment to mitochondria causes mitophagy impairment and neurodegeneration in models of Huntington's disease” (Nature Communications, 2016).

Experiments:
[1] = system: HdhQ111 / HdhQ7 mouse striatal cells; assay: LDH release (cell death) after serum withdrawal; format: cell-based
Method: HdhQ7 and Q111 mouse striatal cells were treated with the HV-3 peptide or the control peptide TAT (3 μM, each) in an FBS-free DMEM medium or in DMEM containing 10% serum for 24 h. Medium from the cultured cells was harvested. Proteins from the medium were purified using Amicon Ultra 0.5 ml centrifugal filters (Millipore). HMGB1 release into the medium was then analysed by Western blotting with anti-HMGB1 antibody. In parallel, cell death was determined by measuring LDH release into the culture medium, using LDH-Cytotoxicity Assay Kit II (Roche, USA) by following the manufacturer's instruction.

[2] = system: HD patient-iPS cell derived neurons; assay: Mitochondrial length along neurites; format: cell-based, human; conditions: 1 μM per day for 5 days
Method: iPS cells from a normal subject and a HD patient (carrying 41 CAG repeats) were differentiated into neurons using the protocol from our previous studies. Briefly, iPS cells were plated onto 6-well plates precoated with 2.5% Matrigel and allowed to reach 90% confluence in feeder-free medium. For the first 10 days, cells were treated with SB431542 (10 μM; Tocris Bioscience) and Noggin (100 ng/ml) in Neural Media (NM) containing Neurobasal and DMEM (1:1), B27 supplement minus vitamin A (50 × , Invitrogen), N2 supplement (100 × , Invitrogen), GlutaMax (Invitrogen, 100 × ), FGF2 ([…]) and EGF ([…]), 100 units per ml penicillin and 100 μg ml^−1 streptomycin). For the next 10 days, cells were treated with human recombinant Sonic hedgehog (SHH, 200 ng/ml), DKK1 (100 ng/ml) and BDNF (20 ng/ml) and 10 μM Y27632 (Sigma) in neuronal differentiation medium containing Neurobasal and DMEM (1:3), B27, N2, GlutaMax and PS. […]
In patient-iPS cell-derived neurons, to ensure the observation of mitochondria in the medium spiny neurons, the cells were stained with a mitochondrial marker (anti-TOM20, 1:500) and markers for medium spiny neurons (DARPP-32, 1:200, Epitomics). The quantitation of neurite length was conducted only in the neurons immunopositive for both DARPP-32 and Tuj1 (neuron-specific class III beta-tubulin, 1:5,000, Covance). At least 50 neurons/group were counted.

YAC128 mice = assay: Rotarod performance; format: in vivo, mouse; conditions: YAC128, 3 mg/kg/day from 3 months; from 6 to 12 months of age, n=15–20
Text: YAC128 (FVB-Tg(YAC128)53Hay/J, JAX stock number: 004938) breeders (FVB/N genetic background) were purchased from Jackson Laboratories. The YAC128 mice contain a full-length human huntingtin gene modified with a 128 CAG repeat expansion in exon 1. The mice were mated, bred and genotyped in the animal facility of Case Western Reserve University. Male mice at the ages of 2, 3, 6, 9 and 12 months were used in the study.
YAC128 mice (Tg) and their age-matched wt littermates were implanted with an osmotic pump containing TAT control peptide or HV-3 peptide (3 mg/kg/day, each) starting from the age of 3 months. The pump was replaced once every month. By the age of 12 months, the treatments were terminated and the mouse samples were harvested for analysis.
The motor coordination and balance of YAC128 mice were tested on an accelerating Rotarod (IITC Life Sciences, Serials 8) at the ages of 2, 3, 6, 9 and 12 months. Training and baseline testing for motor function tasks were conducted at 2 months of age. For training, mice were given three 120-s trials per day at a fixed-speed of 15 r.p.m. for three consecutive days. During the testing phase, the Rotarod accelerated from 5 to 40 r.p.m. over 3 min; the maximum score was 300 s. Rotarod scores were the average of three trials per day (with 2 h rest between trials) for 3 consecutive days.

CSCC[C@H](NC(=O)[C@@H](NC(=O)[C@H](CC(C)C)NC(=O)[C@@H](NC(=O)[C@H](Cc1c[nH]cn1)NC(=O)CCCCCNC(=O)[C@H](CCCNC(=N)N)NC(=O)[C@H](CCCNC(=N)N)NC(=O)[C@H](CCCNC(=N)N)NC(=O)[C@H](CCC(N)=O)NC(=O)[C@H](CCCNC(=N)N)NC(=O)[C@H](CCCNC(=N)N)NC(=O)[C@H](CCCCN)NC(=O)[C@H](CCCCN)NC(=O)[C@H](CCCNC(=N)N)NC(=O)CNC(=O)[C@@H](N)Cc1ccc(O)cc1)C(C)C)C(C)C)C(=O)N[C@@H](CS)C(=O)N[C@@H](C)C(=O)N[C@H](C(N)=O)[C@@H](C)O [HV-3]
LDH release ([1]; HdhQ111 cells, 24 h serum withdrawal, 3 μM): reduced the release of high mobility group box 1 (HMGB1) and lactate dehydrogenase (LDH)
cell survival rate, wt ([1]; wt counterparts of the HD models): only minor effects
mitochondrial length along neurites [2]: improved MMP and mitochondrial length along neurites
rotarod performance (YAC128 mice): improved general movement activity and rotarod performance
